Legend:
[1] = molecular target: Substance-P receptor (Homo sapiens, UniProt P25103); experiment: Binding affinity in membrane preparations containing recombinant human Tachykinin receptor 1 in CHO cells by using [3H]-Sar SP as the radioligand.; format: cell membranes
[2] = molecular target: T1, Substance-K receptor (Homo sapiens, UniProt P21452); experiment: Binding affinity in membrane preparations containing recombinant human Tachykinin receptor 2 in CHO cells by using [3H]NKA as the radioligand.; format: cell membranes
T1 sequence (P21452 whole entry): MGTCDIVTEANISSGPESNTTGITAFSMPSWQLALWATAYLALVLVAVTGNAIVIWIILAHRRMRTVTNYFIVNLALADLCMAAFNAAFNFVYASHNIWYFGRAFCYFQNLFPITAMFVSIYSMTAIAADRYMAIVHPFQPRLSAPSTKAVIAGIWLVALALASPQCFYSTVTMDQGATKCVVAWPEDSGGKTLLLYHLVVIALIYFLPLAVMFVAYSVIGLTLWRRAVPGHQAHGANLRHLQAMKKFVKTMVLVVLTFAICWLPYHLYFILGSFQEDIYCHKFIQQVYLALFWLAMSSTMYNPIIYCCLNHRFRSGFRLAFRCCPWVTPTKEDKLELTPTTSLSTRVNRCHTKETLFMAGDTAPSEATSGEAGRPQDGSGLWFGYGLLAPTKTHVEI

[3] = molecular target: T2, Substance-K receptor (Mesocricetus auratus, UniProt P51144); experiment: Inhibition of NKA-induced airway contraction of isolated hamster trachea (ht) was used as a measure of NK2-receptor antagonist activity.; format: functional, tissue-based; conditions: read-out: pA2 (converted)
T2 sequence (P51144 whole entry): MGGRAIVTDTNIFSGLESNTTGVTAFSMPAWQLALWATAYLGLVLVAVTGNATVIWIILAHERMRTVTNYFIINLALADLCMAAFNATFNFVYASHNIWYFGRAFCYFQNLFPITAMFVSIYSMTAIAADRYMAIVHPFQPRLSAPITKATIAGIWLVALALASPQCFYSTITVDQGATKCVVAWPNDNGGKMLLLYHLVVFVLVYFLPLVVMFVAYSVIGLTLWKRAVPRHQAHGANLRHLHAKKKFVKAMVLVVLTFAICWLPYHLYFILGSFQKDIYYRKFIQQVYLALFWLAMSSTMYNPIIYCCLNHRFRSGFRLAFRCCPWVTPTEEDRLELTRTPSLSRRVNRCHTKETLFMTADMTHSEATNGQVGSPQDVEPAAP

[4] = molecular target: Substance-P receptor (Cavia porcellus, UniProt P30547); experiment: Inhibition of the SP-induced NK1-mediated enhancement of the EFS-induced sympathetic neurogenic contractions of gpvd, used as a measure of antagonist activity.; format: functional; conditions: read-out: pA2 (converted)
Sequence of Substance-P receptor (Cavia porcellus, UniProt P30547) (P30547 whole entry): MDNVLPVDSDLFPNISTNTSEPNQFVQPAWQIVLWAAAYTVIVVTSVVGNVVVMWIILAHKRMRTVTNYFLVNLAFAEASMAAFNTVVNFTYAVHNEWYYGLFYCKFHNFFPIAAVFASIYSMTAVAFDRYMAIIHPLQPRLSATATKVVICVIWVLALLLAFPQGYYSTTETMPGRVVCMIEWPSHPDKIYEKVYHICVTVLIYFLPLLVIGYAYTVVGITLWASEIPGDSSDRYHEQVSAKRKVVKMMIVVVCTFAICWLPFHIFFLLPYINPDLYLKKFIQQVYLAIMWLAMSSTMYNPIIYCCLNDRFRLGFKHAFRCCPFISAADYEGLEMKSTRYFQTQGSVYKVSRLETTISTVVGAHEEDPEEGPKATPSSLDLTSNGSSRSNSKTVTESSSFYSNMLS

Sequence of Substance-P receptor (Homo sapiens, UniProt P25103) (P25103 whole entry): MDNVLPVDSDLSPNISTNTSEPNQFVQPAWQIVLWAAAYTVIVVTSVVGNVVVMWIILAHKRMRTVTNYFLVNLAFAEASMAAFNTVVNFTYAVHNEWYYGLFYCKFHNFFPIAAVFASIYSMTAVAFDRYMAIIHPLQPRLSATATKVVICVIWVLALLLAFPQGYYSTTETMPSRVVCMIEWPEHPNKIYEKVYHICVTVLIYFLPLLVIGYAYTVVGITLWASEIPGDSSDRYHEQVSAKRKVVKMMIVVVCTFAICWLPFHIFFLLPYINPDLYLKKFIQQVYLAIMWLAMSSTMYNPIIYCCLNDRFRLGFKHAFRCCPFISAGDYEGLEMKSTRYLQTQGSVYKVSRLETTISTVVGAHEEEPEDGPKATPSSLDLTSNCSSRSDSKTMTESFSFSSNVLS

Ki [1] | Ki [2] | Kb [3] | Kb [4] | Compound
> 1000 nM | > 1000 nM | – | – | COc1cc(CC(=O)N2CCN(C(=O)CNC3CCN(Cc4ccccc4)CC3)C(c3ccc(Cl)c(Cl)c3)C2)cc(OC)c1OC (centres undefined)
42 nM | 1.1 nM | – | – | Cc1cc(C)cc(C(=O)N2CCN(C(=O)CNC3CCN(C(=O)[C@@H](N)c4ccccc4)CC3)[C@H](c3ccc(Cl)c(Cl)c3)C2)c1
215 nM | 20 nM | – | – | Cc1cc(C)cc(C(=O)N2CCN(C(=O)CNC3CCNCC3)[C@H](c3ccc(Cl)c(Cl)c3)C2)c1
135 nM | > 1000 nM | – | – | CN1CCN(C(=O)CNC2CCN(Cc3ccccc3)CC2)C(c2ccccc2)C1 (centres undefined)
3.2 nM | 14 nM | – | – | O=C(c1cc(Br)cc(Br)c1)N1CCN(C(=O)CNC2CCN(Cc3ccccc3)CC2)C(c2ccc(Cl)c(Cl)c2)C1 (centres undefined)
21 nM | 3.2 nM | – | – | Cc1cc(C)cc(C(=O)N2CCN(C(=O)CNC3CCN(C(=O)[C@@H](N)Cc4ccccc4)CC3)[C@H](c3ccc(Cl)c(Cl)c3)C2)c1
35 nM | 1.3 nM | – | – | Cc1cc(C)cc(C(=O)N2CCN(C(=O)CNC3CCN(Cc4cc[nH]c4)CC3)[C@H](c3ccc(Cl)c(Cl)c3)C2)c1
143 nM | 16 nM | – | – | Cc1cc(C)cc(C(=O)N2CCN(C(=O)CNC3CCN(C(=O)[C@H](N)c4ccccc4)CC3)[C@H](c3ccc(Cl)c(Cl)c3)C2)c1
136 nM | > 1000 nM | – | – | O=C(Cc1cc(C(F)(F)F)cc(C(F)(F)F)c1)N1CCN(C(=O)CNC2CCN(Cc3ccccc3)CC2)C(c2ccccc2)C1 (centres undefined)
23 nM | 22 nM | – | – | O=C(c1cc(F)cc(F)c1)N1CCN(C(=O)CNC2CCN(Cc3ccccc3)CC2)C(c2ccc(Cl)c(Cl)c2)C1 (centres undefined)
52 nM | 0.9 nM | – | – | CC(=O)Nc1nc(CN2CCC(NCC(=O)N3CCN(C(=O)c4cc(C)cc(C)c4)C[C@H]3c3ccc(Cl)c(Cl)c3)CC2)cs1
92 nM | 3 nM | – | – | Cc1cc(C)cc(C(=O)N2CCN(C(=O)CNC3CCN(Cc4ncc[nH]4)CC3)[C@H](c3ccc(Cl)c(Cl)c3)C2)c1
70 nM | 28 nM | – | – | Cc1cc(C)cc(C(=O)N2CCN(C(=O)CNC3CCN(C(=O)[C@H](N)Cc4c[nH]c5ccccc45)CC3)[C@H](c3ccc(Cl)c(Cl)c3)C2)c1
11 nM | 1.1 nM | – | – | Cc1cc(C)cc(C(=O)N2CCN(C(=O)CNC3CCN(C(=O)[C@H](N)Cc4ccccc4)CC3)[C@H](c3ccc(Cl)c(Cl)c3)C2)c1
15 nM | 1.3 nM | – | – | CC(=O)Nc1ccc(CN2CCC(NCC(=O)N3CCN(C(=O)c4cc(C)cc(C)c4)C[C@H]3c3ccc(Cl)c(Cl)c3)CC2)cc1
7.7 nM | 14 nM | – | – | O=C(c1cc(Cl)cc(Cl)c1)N1CCN(C(=O)CNC2CCN(Cc3ccccc3)CC2)C(c2ccc(Cl)c(Cl)c2)C1 (centres undefined)
– | – | 316 nM | 316 nM | Cc1cc(C)cc(C(=O)N2CCN(C(=O)CNC3CCN(Cc4ccccc4)CC3)C(c3ccc(Cl)c(Cl)c3)C2)c1 (centres undefined)

Ki [1] | Ki [2] | Kb [3] | Kb [4] | Compound
30 nM | 175 nM | – | – | O=C(CNC1CCN(Cc2ccccc2)CC1)N1CCN(Cc2cc(C(F)(F)F)cc(C(F)(F)F)c2)CC1c1ccc(Cl)c(Cl)c1 (centres undefined)
13 nM | > 1000 nM | – | – | O=C(CN1CCC(O)(c2ccccc2)CC1)N1CCN(Cc2cc(C(F)(F)F)cc(C(F)(F)F)c2)CC1c1ccccc1 (centres undefined)
110 nM | > 1000 nM | – | – | O=C(CN1CCC(Cc2ccccc2)CC1)N1CCN(Cc2cc(C(F)(F)F)cc(C(F)(F)F)c2)CC1c1ccc(Cl)c(Cl)c1 (centres undefined)
48 nM | > 1000 nM | – | – | CC(=O)NC1(c2ccccc2)CCN(CC(=O)N2CCN(Cc3cc(C(F)(F)F)cc(C(F)(F)F)c3)CC2c2ccccc2)CC1 (centres undefined)
112 nM | 124 nM | – | – | COc1cc(C(=O)N2CCN(C(=O)CNC3CCN(Cc4ccccc4)CC3)C(c3ccc(Cl)c(Cl)c3)C2)cc(OC)c1OC (centres undefined)
7.1 nM | 27 nM | – | – | COc1cc(OC)cc(C(=O)N2CCN(C(=O)CNC3CCN(Cc4ccccc4)CC3)C(c3ccc(Cl)c(Cl)c3)C2)c1 (centres undefined)
32 nM | 7 nM | – | – | Cc1cc(C)cc(C(=O)N2CCN(C(=O)CNC3CCN(C(=O)[C@H](N)Cc4ccc(O)cc4)CC3)[C@H](c3ccc(Cl)c(Cl)c3)C2)c1
– | – | – | 6.31 nM | Cc1cc(C)cc(C(=O)N2CCN(C(=O)CNC3CCN(Cc4ccccc4)CC3)[C@@H](c3ccc(Cl)c(Cl)c3)C2)c1
28 nM | > 1000 nM | – | – | O=C(CN1CCN(Cc2ccccc2)CC1)N1CCN(Cc2cc(C(F)(F)F)cc(C(F)(F)F)c2)CC1c1ccc(Cl)c(Cl)c1 (centres undefined)
48 nM | > 1000 nM | – | – | O=C(CN1CCN(Cc2ccccc2)CC1)N1CCN(Cc2cc(C(F)(F)F)cc(C(F)(F)F)c2)CC1c1ccccc1 (centres undefined)
> 1000 nM | > 1000 nM | – | – | O=C(c1cc(O)cc(O)c1)N1CCN(C(=O)CNC2CCN(Cc3ccccc3)CC2)C(c2ccc(Cl)c(Cl)c2)C1 (centres undefined)
37 nM | > 1000 nM | – | – | O=C(CN1CCC(Cc2ccccc2)CC1)N1CCN(Cc2cc(C(F)(F)F)cc(C(F)(F)F)c2)CC1c1ccccc1 (centres undefined)
– | – | – | 79.4 nM | O=C(c1cc(C(F)(F)F)cc(C(F)(F)F)c1)N1CCN(C(=O)CNC2CCN(Cc3ccccc3)CC2)C(c2ccc(Cl)c(Cl)c2)C1 (centres undefined)
17 nM | 300 nM | – | – | O=C(CNC1CCN(Cc2ccccc2)CC1)N1CCN(Cc2cc(C(F)(F)F)cc(C(F)(F)F)c2)CC1c1ccccc1 (centres undefined)
32 nM | > 1000 nM | – | – | O=C(CN1CCC(O)(c2ccccc2)CC1)N1CCN(Cc2cc(C(F)(F)F)cc(C(F)(F)F)c2)CC1c1ccc(Cl)c(Cl)c1 (centres undefined)
148 nM | > 1000 nM | – | – | CC(=O)NC1(c2ccccc2)CCN(CC(=O)N2CCN(Cc3cc(C(F)(F)F)cc(C(F)(F)F)c3)CC2c2ccc(Cl)c(Cl)c2)CC1 (centres undefined)

Reference: ChEMBL document CHEMBL1134946, “Synthesis and NK(1)/NK(2) binding activities of a series of diacyl-substituted 2-arylpiperazines” (Bioorg Med Chem Lett, 2002)
